According to publication PMC8836234, “Salicylic Acid Is Required for Broad-Spectrum Disease Resistance in Rice” (International Journal of Molecular Sciences, 2022):
Substitutions are numbered along the chain they refer to. Values belong to the molecule of their own block, whether it stands above or below them.

Tests used:
[1] = biological target: T1, OsSAH3 (Oryza sativa, UniProt Q7XUN0); experiment: LC-MS/MS of […],5-DHBA formation, substrate inhibition fit; assay type: biochemical; conditions: substrate inhibition constant, second site; 5-hydroxylation (2,5-DHBA product); 1 mM 2-oxoglutarate, 0.4 mM FeSO4, phosphate pH 6.8, 40 °C
T1 construct: gene Os04g0581100; recombinant from E. coli BL21 (DE3), modified pGEX vector (GST purification), 3 x Myc at C-terminus; wild type has F136, R138, I289, P292; gene on chromosome 4, tail-to-tail with OsSAH2
T1 sequence (Q7XUN0 1-352): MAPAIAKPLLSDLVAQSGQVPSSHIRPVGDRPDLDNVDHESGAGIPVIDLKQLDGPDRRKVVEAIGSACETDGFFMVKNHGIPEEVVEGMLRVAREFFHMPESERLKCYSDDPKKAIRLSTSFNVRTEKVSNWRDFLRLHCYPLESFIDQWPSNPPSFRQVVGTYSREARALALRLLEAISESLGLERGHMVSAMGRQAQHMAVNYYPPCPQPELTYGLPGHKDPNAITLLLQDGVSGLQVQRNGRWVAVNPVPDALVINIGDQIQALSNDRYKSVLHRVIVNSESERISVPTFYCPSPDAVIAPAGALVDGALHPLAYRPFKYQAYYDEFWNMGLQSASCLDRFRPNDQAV

[2] = biological target: T2, OsSAH4 (Oryza sativa, UniProt Q8W2X5); experiment: as above; assay type: biochemical; conditions: substrate inhibition constant, second site; 5-hydroxylation (2,5-DHBA product); 1 mM 2-oxoglutarate, 0.4 mM FeSO4, phosphate pH 6.8, 40 °C
T2 construct: gene F3H-2; recombinant from E. coli BL21 (DE3), modified pGEX vector (GST purification), 3 x Myc at C-terminus
T2 sequence (Q8W2X5 1-342): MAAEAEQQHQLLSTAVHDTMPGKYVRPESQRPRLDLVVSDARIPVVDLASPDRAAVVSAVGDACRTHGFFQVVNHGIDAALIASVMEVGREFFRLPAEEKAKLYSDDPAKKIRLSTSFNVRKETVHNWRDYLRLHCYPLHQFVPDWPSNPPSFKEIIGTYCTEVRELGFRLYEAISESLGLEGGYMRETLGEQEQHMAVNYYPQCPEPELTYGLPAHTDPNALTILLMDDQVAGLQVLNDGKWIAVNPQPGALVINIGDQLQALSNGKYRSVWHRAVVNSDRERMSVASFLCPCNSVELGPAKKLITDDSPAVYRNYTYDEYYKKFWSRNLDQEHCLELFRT

[3] = biological target: T3, DMR6 (Arabidopsis thaliana, UniProt Q9FLV0); experiment: LC-MS/MS product formation relative to wild type; assay type: biochemical; conditions: 2-oxoglutarate, FeSO4, phosphate pH 6.8, 40 °C; 2,3- and 2,5-DHBA products
T3 construct: recombinant from E. coli BL21 (DE3), modified pGEX vector (GST purification), 3 x Myc at C-terminus; wild type has Y126, A283
T3 sequence (Q9FLV0 1-341): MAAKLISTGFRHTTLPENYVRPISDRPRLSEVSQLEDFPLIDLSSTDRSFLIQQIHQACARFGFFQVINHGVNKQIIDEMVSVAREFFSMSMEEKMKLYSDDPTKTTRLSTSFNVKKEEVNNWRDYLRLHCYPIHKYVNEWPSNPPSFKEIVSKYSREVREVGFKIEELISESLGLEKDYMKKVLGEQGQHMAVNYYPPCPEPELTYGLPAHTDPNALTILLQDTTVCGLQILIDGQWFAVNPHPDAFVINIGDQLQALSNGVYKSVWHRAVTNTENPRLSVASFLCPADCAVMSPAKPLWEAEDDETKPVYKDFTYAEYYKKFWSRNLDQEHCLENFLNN

[4] = biological target: T4, OsSAH2 (Oryza sativa, UniProt B9FC47, Y127F); experiment: LC-MS/MS product formation relative to wild type; assay type: biochemical; conditions: 2-oxoglutarate, FeSO4, phosphate pH 6.8, 40 °C; 2,3- and 2,5-DHBA products
T4 construct: gene Os04g0581000; recombinant from E. coli BL21 (DE3), modified pGEX vector (GST purification), 3 x Myc at C-terminus; wild type has Y127, M282, A285; gene on chromosome 4, tail-to-tail with OsSAH3
T4 sequence (B9FC47 1-340 Y127F): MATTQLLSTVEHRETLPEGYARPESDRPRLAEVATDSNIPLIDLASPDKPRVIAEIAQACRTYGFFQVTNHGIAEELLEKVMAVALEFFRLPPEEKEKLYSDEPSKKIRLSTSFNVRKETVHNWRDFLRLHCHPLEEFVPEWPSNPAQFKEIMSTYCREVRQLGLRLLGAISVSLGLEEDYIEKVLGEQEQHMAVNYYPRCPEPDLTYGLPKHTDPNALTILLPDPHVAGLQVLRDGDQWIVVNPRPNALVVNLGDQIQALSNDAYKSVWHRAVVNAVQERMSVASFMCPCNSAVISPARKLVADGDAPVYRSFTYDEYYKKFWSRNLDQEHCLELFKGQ

[5] = biological target: T5, OsSAH2 (Oryza sativa, UniProt B9FC47); experiment: LC-MS/MS of […],5-DHBA formation, substrate inhibition fit; assay type: biochemical; conditions: substrate inhibition constant, second site; 5-hydroxylation (2,5-DHBA product); 1 mM 2-oxoglutarate, 0.4 mM FeSO4, phosphate pH 6.8, 40 °C
T5 construct: gene Os04g0581000; recombinant from E. coli BL21 (DE3), modified pGEX vector (GST purification), 3 x Myc at C-terminus; wild type has Y127, M282, A285; gene on chromosome 4, tail-to-tail with OsSAH3
T5 sequence (B9FC47 1-340): T4 sequence (B9FC47 1-340 Y127F) with F127Y

[6] = biological target: T6, OsSAH1 (Oryza sativa, UniProt Q10SI2); experiment: as above; assay type: biochemical; conditions: substrate inhibition constant, second site; 5-hydroxylation (2,5-DHBA product); 1 mM 2-oxoglutarate, 0.4 mM FeSO4, phosphate pH 6.8, 40 °C
T6 construct: gene Os03g0122300; recombinant from E. coli BL21 (DE3), modified pGEX vector (GST purification), 3 x Myc at C-terminus
T6 sequence (Q10SI2 1-342): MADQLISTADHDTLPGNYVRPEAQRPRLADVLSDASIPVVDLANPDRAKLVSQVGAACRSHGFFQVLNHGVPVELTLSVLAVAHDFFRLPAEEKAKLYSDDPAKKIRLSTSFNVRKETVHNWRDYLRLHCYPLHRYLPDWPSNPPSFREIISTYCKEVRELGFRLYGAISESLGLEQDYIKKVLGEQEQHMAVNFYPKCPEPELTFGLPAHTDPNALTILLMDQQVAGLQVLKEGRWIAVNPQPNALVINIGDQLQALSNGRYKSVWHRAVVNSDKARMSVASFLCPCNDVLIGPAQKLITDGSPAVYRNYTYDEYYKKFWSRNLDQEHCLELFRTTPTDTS

[7] = substrate: O=C(O)c1ccccc1O; experiment: purified protein; assay type: biochemical, Oryza sativa; conditions: 5-hydroxylation (2,5-DHBA product), 1 mM 2-oxoglutarate, 0.4 mM FeSO4, ascorbate, phosphate pH 6.8, 40 °C

- Ksi [1]: 365.12 ± 30.58 µM
- Ksi [2]: 26.52 ± 10.71 µM
- Ksi [5]: 2.14 ± 1.86 µM
- Ksi [6]: 27.13 ± 21.11 µM
Molecule: O=C(O)c1ccccc1O [SA, 2-hydroxy benzoic acid]
- LC-MS/MS product formation relative to wild type [3]: The higher activity of DMR6 than that of OsSAH2 was also supported by these parameters
- relative enzyme activity [4]: OsSAH2^Y127F mutant showed a similar level of SA5H activity as that of OsSAH2

B1: OsSAH3 (Oryza sativa Japonica Group) (protein)
chain: T1 sequence (Q7XUN0 1-352)
notes: recombinant from E. coli BL21 (DE3), modified pGEX vector (GST purification), 3 x Myc at C-terminus; wild type has F136, R138, I289, P292; gene on chromosome 4, tail-to-tail with OsSAH2
- Km [7]: 197.08 ± 19.42 µM
- kcat [7]: 0.256 ± 0.0332 s⁻¹
- kcat/Km [7]: 1290 M⁻¹ s⁻¹
